Measurements reported in EP0149818A2, “1,4-Naphthoquinone derivatives, process for their preparation and their use as medicines” (Troponwerke GmbH & Co. KG, priority 1983, dated 1985).

Tests used:
[1] = tested on: durch das chemotaktisch wirkende FMLP stimulierte Aggregation von PMN-Leukozyten; assay: Inhibition of FMLP-stimulated aggregation of PMN leukocytes (method of Cunningham et al.); assay type: cell-based; conditions: Leukocyte
Excerpt: Darüber hinaus konnte für eine Reihe von Verbindungen der allgemeinen Formel I nachgewiesen werden, daß sie die durch das chemotaktisch wirkende FMLP stimulierte Aggregation von PMN-Leukozyten hemmen und dadurch Anteil an der entzündungshemmenden Wirkung haben (Methode von Cunningham et al., Agents & Actions 11, 583 (1981)). Für Verb. 1 ist die IC50 in diesem Test 3.7 x 10^-5 Mol/l.

[2] = tested on: durch Carrageenan ausgelöste ödem der Rattenpfote; assay: Carrageenan-induced rat paw oedema (method of Winter et al., modified: pure λ-carrageenan as 0,25 % suspension in saline); assay type: in vivo, Ratte; conditions: po, p.o, λ-carrageenan 0,25 % suspension, read-out: DE50 (the source's name)
Description: Die Verbindungen der allgemeinen Formel I hemmen das durch Carrageenan ausgelöste ödem der Rattenpfote stark. Zum Nachweis diente die Methode von Winter et al., Proc. Soc. Exp. Bil. Med. 111, 544 (1962), mit der Abwandlung, daß zur ödemauslösung reines λ-carrageenan als 0,25 % Suspension in physiologischer Kochsalzlösung verwendet wurde. Beispielhaft wurde in diesem Testmodell für Verb. 1 die DE50 = 0,5 mg/kg p.o ermittelt.

[3] = tested on: Metabolisierung der Arachidonsäure über den Cyclooxygenaseweg; assay: Inhibition of arachidonic acid metabolism via the cyclooxygenase pathway (method of Brune et al.); assay type: cell-based
Excerpt: Wie die meisten NSAID (non steroidal antiinflammatory drugs) hemmen auch die meisten Verbindungen der allgemeinen Formel I die Metabolisierung der Arachidonsäure über den Cyclooxygenaseweg mehr oder weniger stark (Methode von Brune et al., Naunyn-Schmiedeberg's Arch. Pharmacol. 315, 269 (1981)). Die IC50 für Verb. 1 in diesem Test beträgt 2.6 x 10-^6 Mol/l.

## O=C1C(O)=C(NCc2ccccc2)C(=O)c2ccccc21 [Verb. 1, 2-Benzylamino-3-hydroxy-naphthochinon-1,4]
[1]
  IC50: 37 µM
[2]
  ED50: 0.5 mg/kg
[3]
  IC50: 2.6 µM
